Results: US20220177968A1, “METHODS FOR DETECTING OR REDUCING THE INCIDENCE OF ADVERSE DRUG REACTIONS” (CHANG GUNG MEMORIAL HOSPITAL, LINKOU, priority 2019, published 2022)
Several values for one entry are separate records, joined by “and”; a condition that tells them apart may be missing. Equal entries are not always repeated.

Assays:
[1] = system: European descent patients with CBZ-induced SJS/TEN; experiment: HLA-A/B allele association with CBZ-induced SJS/TEN (case-control, sequence-based HLA typing); type: in vivo, human; details: for OR (95% CI) / Odds ratio (95% CI): CBZ-SJS/TEN cases vs European general population; for SJS/TEN N (%), allele carriers among cases / SCAR case N (%), allele carriers among cases: CBZ-SJS/TEN patients of European descent
Text: (§1) A total of 28 patients of European descent with CBZ-SJS/TEN were enrolled in this study. SJS/TEN is characterized by a rapidly developing exanthema of purpuric macules and target-like lesions with skin detachment accompanied by hemorrhagic-erosive mucosal involvement. Skin detachment in SJS patients affects less than 10% of body surface area (BSA), while TEN patients have skin detachment greater than 30% of BSA. Detachment of 10-30% is defined as SJS/TEN-overlap, reflecting a continuum of severity variants of one disease entity. Patients with CBZ-DRESS were also enrolled for comparison. HLA-A and HLA-B genotypes of patients with CBZ-SJS/TEN were determined by SeCore HLA sequence-based typing (Invitrogen, Life Technologies, USA). Furthermore, the HLA genotypes for patients with CBZ-DRESS and general population (the control group) were also determined. Statistical analyses were performed using SPSS 21.0 (IBM, Armonk, N.Y.). Comparisons of genotype frequencies between groups were performed using Fisher exact tests. Differences were considered statistically significant at p-values of less than 0.05.

[2] = system: patients with CBZ-DRESS, European descent; experiment: HLA allele association with CBZ-induced DRESS (case-control, HLA typing); type: in vivo, human; details: for Odds ratio (95% CI): CBZ-DRESS cases vs European general population; for SCAR case N (%), allele carriers among cases: CBZ-DRESS patients
Text: as §1

OR (95% CI) ([1]; HLA-A*01:01): 2.2 (1.1-4.7)
SJS/TEN N (%), allele carriers among cases ([1]; HLA-A*01:01): 14/28 (50.0%)
OR (95% CI) ([1]; HLA-A*02:01): 0.5 (0.2-1.0)
SJS/TEN N (%), allele carriers among cases ([1]; HLA-A*02:01): 11/28 (39.29%)
OR (95% CI) ([1]; HLA-A*24:02): 0.6 (0.2-1.8)
SJS/TEN N (%), allele carriers among cases ([1]; HLA-A*24:02): 3/28 (10.71%)
OR (95% CI) ([1]; HLA-A*26:01): 3.5 (1.3-9.0)
SJS/TEN N (%), allele carriers among cases ([1]; HLA-A*26:01): 5/28 (17.86%)
OR (95% CI) ([1]; HLA-A*31:01): 3.5 (1.2-10.2) and 3.6 (1.2-10.3)
Sensitivity (%) ([1]; HLA-A*31:01 as marker of CBZ-SJS/TEN): 14.29%
OR (95% CI) ([1]; HLA-B*08:01): 1.5 (0.7-3.5)
SJS/TEN N (%), allele carriers among cases ([1]; HLA-B*08:01): 8/28 (28.57%)
OR (95% CI) ([1]; HLA-B*13:02): 1.8 (0.5-6.0)
SJS/TEN N (%), allele carriers among cases ([1]; HLA-B*13:02): 3/28 (10.71%)
OR (95% CI) ([1]; HLA-B*15:02): 44.4 (2.2-879.5)
SJS/TEN N (%), allele carriers among cases ([1]; HLA-B*15:02): 0/28 (0%)
OR (95% CI) ([1]; HLA-B*18:01): 1.1 (0.3-3.8)
SJS/TEN N (%), allele carriers among cases ([1]; HLA-B*18:01): 3/28 (10.71%)
Sensitivity (%) ([1]; HLA-B*38:01 as marker of CBZ-SJS/TEN): 14.29%
OR (95% CI) ([1]; HLA-B*44:02): 0.2 (0.0-1.4)
SJS/TEN N (%), allele carriers among cases ([1]; HLA-B*44:02): 1/28 (3.57%)
OR (95% CI) ([1]; HLA-B*44:03): 1.9 (0.6-5.4)
SJS/TEN N (%), allele carriers among cases ([1]; HLA-B*44:03): 4/28 (14.29%)
Odds ratio (95% CI) ([1]; HLA-B*57:01/A*31:01/B*38:01): 9.3 (4.4-19.9)
SCAR case N (%), allele carriers among cases ([1]; HLA-B*57:01/A*31:01/B*38:01): (60.71%)
Sensitivity (%) ([1]; HLA-B*57:01/A*31:01/B*38:01 as marker of CBZ-SJS/TEN): 60.71%
Odds ratio (95% CI) ([1]; HLA-B*57:01/A*31:01): 8.0 (3.8-16.7)
SCAR case N (%), allele carriers among cases ([1]; HLA-B*57:01/A*31:01): (50.00%)
Sensitivity (%) ([1]; HLA-B*57:01/A*31:01 as marker of CBZ-SJS/TEN): 50.00%
Odds ratio (95% CI) ([1]; HLA-B*57:01/B*38:01): 8.6 (4.1-18.1)
SCAR case N (%), allele carriers among cases ([1]; HLA-B*57:01/B*38:01): (50.00%)
Sensitivity (%) ([1]; HLA-B*57:01/B*38:01 as marker of CBZ-SJS/TEN): 50.00%
Sensitivity (%) ([1]; HLA-B*57:01 as marker of CBZ-SJS/TEN): 39.29%
Odds ratio (95% CI) ([2]; HLA-A*31:01): 49.9 (12.9-193.6)
Sensitivity (%) ([2]; HLA-A*31:01 as marker of CBZ-DRESS): 70.00%
Odds ratio (95% CI) ([2]; HLA-B*38:01): 1.2 (0.1-21.0)
SCAR case N (%), allele carriers among cases ([2]; HLA-B*38:01): (0%)
Sensitivity (%) ([2]; HLA-B*38:01 as marker of CBZ-DRESS): 0%
Odds ratio (95% CI) ([2]; HLA-B*57:01/A*31:01/B*38:01): 14.1 (3.6-54.5)
SCAR case N (%), allele carriers among cases ([2]; HLA-B*57:01/A*31:01/B*38:01): (70.00%)
Sensitivity (%) ([2]; HLA-B*57:01/A*31:01/B*38:01 as marker of CBZ-DRESS): 70.00%
Odds ratio (95% CI) ([2]; HLA-B*57:01/A*31:01): 18.6 (4.8-71.9)
SCAR case N (%), allele carriers among cases ([2]; HLA-B*57:01/A*31:01): (70.00%)
Sensitivity (%) ([2]; HLA-B*57:01/A*31:01 as marker of CBZ-DRESS): 70.00%
Odds ratio (95% CI) ([2]; HLA-B*57:01/B*38:01): 0.4 (0-7.0)
SCAR case N (%), allele carriers among cases ([2]; HLA-B*57:01/B*38:01): (0%)
Sensitivity (%) ([2]; HLA-B*57:01/B*38:01 as marker of CBZ-DRESS): 0%
Odds ratio (95% CI) ([2]; HLA-B*57:01): 0.7 (0.0-11.3)
SCAR case N (%), allele carriers among cases ([2]; HLA-B*57:01): (0%)
Sensitivity (%) ([2]; HLA-B*57:01 as marker of CBZ-DRESS): 0%
SMILES: NC(=O)N1c2ccccc2C=Cc2ccccc21 [CBZ, Carbamazepine]
